Laboratory results taken from patent US20170049843A1, “Hepatocyte Growth Factor Mimics as Therapeutic Agents” (WASHINGTON STATE UNIVERSITY, priority 2011, published 2017).
Entries after “also recorded” stand apart in the source; their conditions may differ. Where a SMILES comes first, the peptide text is derived from it. [ ]: non-standard residue; d: D form. The star is where a group is joined. Hexanoyl = CCCCCC(=O)*; Ahx = NCCCCCC(=O)O

Experiments:
[1] = tested on: scopolamine treated rats; assay: Morris water maze, scopolamine amnesia model; type: in vivo, rat
[2] = tested on: aged rats; assay: Morris water maze, aged rat model; type: in vivo; conditions: oral 2 mg/kg/day, 8 days, vs untreated
Experimental: FIG. 37. Dihexa improves spatial learning in aged rats. Group latencies to find the submerged platform in the Morris water maze task of spatial memory are shown. Five minutes before beginning testing 24 month old mixed sex (3 male and 3 female/group) Sprague Dawley rats were administered […] (2 mg/kg) orally by gavage (suspension in isotonic NaCl), on a daily basis. There were 5 trials per day for 8 days. The latency to find the pedestal was considered a measure of learning and memory. […] Swim speed was determined from these values.

[3] = tested on: hippocampal neurons; assay: Protection of hippocampal neurons from growth factor deprivation; type: cell-based; conditions: starved 72 hrs, +/− HGF sub-threshold
Experimental: FIG. 46. […] Dissociated hippocampal neurons were starved for 72 hrs+/−HGF at sub-threshold concentrations […] and or Dihexa at 2 different concentrations 10^−8M and 10^−8M. (**p<0.001.*** p<0.000I; Mean+/−SEM).

[4] = icv, scopolamine 70 nmol, Dihexa 300 pmol, Hinge 300 pmol, vehicle 43.0 s

CCCCCC(=O)N[C@@H](Cc1ccc(O)cc1)C(=O)N[C@H](C(=O)NCCCCCC(N)=O)[C@@H](C)CC [Dihexa, N-hexanoic-Tyr-Ile-(6)-aminohexanoic amide] (Hexanoyl-Tyr-Ile-[Ahx]-NH2)
latency to find the pedestal in the water maze (reversal of scopolamine deficits) ([1]; ICV 10 pmoles (low dose)): but not 10 pmoles
latency to find the pedestal in the water maze (reversal of scopolamine deficits) ([1]; ICV 100 pmoles (high dose), daily, 8 days): reversed scopolamine-dependent learning deficits; also recorded: completely overcome the scopolamine deficits
group latency to find the submerged platform ([1]; icv 0.1 nmol after scopolamine, days 5-8): significantly improved performance
group latency to find the submerged platform ([1]; icv 1 nmol after scopolamine): different from the scopolamine group
time in the target quadrant, day 9 probe trial ([1]; icv 1 nmol after scopolamine, vs vehicle control): not different
mean latency to find the pedestal, final day of training [1, 4]: 62.3 s
mean latency to find the pedestal, fourth day of training [1, 4]: 63.0 s
mean latency to find the pedestal, day one of training ([1]; icv, scopolamine 70 nmol, Dihexa 300 pmol, Hinge 300 pmol, vehicle 89.3 s): 115.2 s
group latency to find the submerged platform ([1]; ip 0.05 mg/kg after scopolamine): not different than the scopolamine group
group latency to find the submerged platform ([1]; ip 0.25 mg/kg after scopolamine): different than the scopolamine
group latency to find the submerged platform ([1]; ip 0.50 mg/kg after scopolamine, 0.5 mg/kg): different than the scopolamine; also recorded: not different than the vehicle control group
time in the target quadrant, day 9 probe trial ([1]; ip delivery, each dose group vs scopolamine→PBS): Each of the treatment groups was different than the scopolamine
latency to find the pedestal in the water maze (reversal of scopolamine deficits) ([1]; oral 1.25 mg/kg (low dose), days 3-8): partially reversed
latency to find the pedestal in the water maze (reversal of scopolamine deficits) ([1]; oral 2 mg/kg/day (high dose), 2 mg/kg/day): no different than controls; also recorded: completely overcome the scopolamine deficits; also recorded: completely reversed the scopolamine-dependent learning deficit
time in the target quadrant, day 9 probe trial ([1]; oral delivery, both dose groups vs scopolamine→PBS): Both of the treatment groups were different than the scopolamine
water maze performance (latency) of aged rats [2]: preformed significantly better in the water maze than untreated rats; also recorded: performed significantly better than untreated controls; also recorded: significantly different than that of the non-treated rats
protection of neurons from growth factor deprivation [3]: protects neurons from growth factor deprivation
